# Laboratory results from ChEMBL document CHEMBL1201862, “PubChem BioAssay data set” (2004).
#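 Protocol summary: plate cells (96-well), add compound at 5 concentrations, incubate 48 h, interpolate endpoints linearly. At the GI50, growth is halved.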 Activity calls are given as the source filed them. No stated cut-off is given here; in the data, active = GI50 up to about 1.1 µM and inactive = higher.
# Columns and labels:
# Assay in all cases: NCI anticancer screen, dose series, 48 h
# 786-0 = tested on: 786-0
# A498 = tested on: A498
# ACHN = tested on: ACHN
# BT-549 = tested on: BT-549
# CAKI-1 = tested on: CAKI-1
# CCRF-CEM = tested on: CCRF-CEM
# COLO 205 = tested on: COLO 205
# DU-145 = tested on: DU-145
# EKVX = tested on: EKVX
# HCT-116 = tested on: HCT-116
# HCT-15 = tested on: HCT-15
# HL-60 = tested on: HL-60
# HOP-62 = tested on: HOP-62
# Hs-578T = tested on: Hs-578T
# IGROV-1 = tested on: IGROV-1
# K562 = tested on: K562
# KM12 = tested on: KM12
# LOX IMVI = tested on: LOX IMVI
# M14 = tested on: M14
# MCF7 = tested on: MCF7
# MDA-MB-231 = tested on: MDA-MB-231
# MDA-MB-435 = tested on: MDA-MB-435
# MDA-N = tested on: MDA-N
# MOLT-4 = tested on: MOLT-4
# Malme-3M = tested on: Malme-3M
# NCI-H226 = tested on: NCI-H226
# NCI-H23 = tested on: NCI-H23
# NCI-H460 = tested on: NCI-H460
# NCI/ADR-RES = tested on: NCI/ADR-RES
# OVCAR-3 = tested on: OVCAR-3
# OVCAR-5 = tested on: OVCAR-5
# OVCAR-8 = tested on: OVCAR-8
# PC-3 = tested on: PC-3
# RPMI-8226 = tested on: RPMI-8226
# RXF 393 = tested on: RXF 393
# SF-268 = tested on: SF-268
# SF-295 = tested on: SF-295
# SF-539 = tested on: SF-539
# SK-MEL-28 = tested on: SK-MEL-28
# SK-MEL-2 = tested on: SK-MEL-2
# SK-MEL-5 = tested on: SK-MEL-5
# SK-OV-3 = tested on: SK-OV-3
# SN12C = tested on: SN12C
# SNB-19 = tested on: SNB-19
# SNB-75 = tested on: SNB-75
# SR = tested on: SR
# SW-620 = tested on: SW-620
# T47D = tested on: T47D
# TK-10 = tested on: TK-10
# U-251 = tested on: U-251
# UACC-257 = tested on: UACC-257
# UACC-62 = tested on: UACC-62
# UO-31 = tested on: UO-31
# A549 = tested on: A549
# HCC 2998 = tested on: HCC 2998
# HT-29 = tested on: HT-29
# NCI-H522 = tested on: NCI-H522
# OVCAR-4 = tested on: OVCAR-4
smiles,measurement,setting,value
Oc1ccc2c(c1)CCc1c-2n(CCN2CCOCC2)c2ccc(O)cc12,GI50,786-0,43.5 µM (inactive)
same,GI50,A498,14.9 µM (inactive)
same,GI50,ACHN,16.1 µM (inactive)
same,GI50,BT-549,31.3 µM (inactive)
same,GI50,CAKI-1,24.8 µM (inactive)
same,GI50,CCRF-CEM,38.2 µM (inactive)
same,GI50,COLO 205,56.2 µM (inactive)
same,GI50,DU-145,33 µM (inactive)
same,GI50,EKVX,38.8 µM (inactive)
same,GI50,HCT-116,41.3 µM (inactive)
same,GI50,HCT-15,36.1 µM
same,GI50,HL-60,55.6 µM (inactive)
same,GI50,HOP-62,43.4 µM (inactive)
same,GI50,Hs-578T,32.8 µM (inactive)
same,GI50,IGROV-1,11 µM (inactive)
same,GI50,K562,41.6 µM (inactive)
same,GI50,KM12,20.8 µM (inactive)
same,GI50,LOX IMVI,41.2 µM (inactive)
same,GI50,M14,39 µM (inactive)
same,GI50,MCF7,23.5 µM (inactive)
same,GI50,MDA-MB-231,49.7 µM (inactive)
same,GI50,MDA-MB-435,44.4 µM (inactive)
same,GI50,MDA-N,45.3 µM (inactive)
same,GI50,MOLT-4,33.4 µM (inactive)
same,GI50,Malme-3M,25.3 µM (inactive)
same,GI50,NCI-H226,22.8 µM (inactive)
same,GI50,NCI-H23,27.7 µM (inactive)
same,GI50,NCI-H460,33.2 µM (inactive)
same,GI50,NCI/ADR-RES,21 µM (inactive)
same,GI50,OVCAR-3,48.6 µM (inactive)
same,GI50,OVCAR-5,78.3 µM (inactive)
same,GI50,OVCAR-8,20.2 µM (inactive)
same,GI50,PC-3,35.3 µM (inactive)
same,GI50,RPMI-8226,29.1 µM (inactive)
same,GI50,RXF 393,30.5 µM (inactive)
same,GI50,SF-268,31.8 µM (inactive)
same,GI50,SF-295,47.2 µM (inactive)
same,GI50,SF-539,27.9 µM (inactive)
same,GI50,SK-MEL-28,29.3 µM (inactive)
same,GI50,SK-MEL-2,27.1 µM (inactive)
same,GI50,SK-MEL-5,15.7 µM (inactive)
same,GI50,SK-OV-3,46.3 µM (inactive)
same,GI50,SN12C,> 100 µM (inactive)
same,GI50,SNB-19,25.1 µM (inactive)
same,GI50,SNB-75,16.8 µM (inactive)
same,GI50,SR,> 100 µM (inactive)
same,GI50,SW-620,44.9 µM (inactive)
same,GI50,T47D,31.1 µM (inactive)
same,GI50,TK-10,36.7 µM (inactive)
same,GI50,U-251,35.9 µM (inactive)
same,GI50,UACC-257,37.2 µM (inactive)
same,GI50,UACC-62,20.6 µM (inactive)
same,GI50,UO-31,10.4 µM (inactive)
COc1cc2nc(-c3ccccc3)cc(O)c2c(OC)c1OC,GI50,786-0,> 100 µM (inactive)
same,GI50,A498,> 100 µM (inactive)
same,GI50,A549,> 100 µM (inactive)
same,GI50,ACHN,> 100 µM (inactive)
same,GI50,BT-549,> 100 µM (inactive)
same,GI50,CCRF-CEM,> 100 µM (inactive)
same,GI50,COLO 205,> 100 µM (inactive)
same,GI50,DU-145,> 100 µM (inactive)
same,GI50,EKVX,> 100 µM (inactive)
same,GI50,HCC 2998,> 100 µM (inactive)
same,GI50,HCT-116,> 100 µM (inactive)
same,GI50,HCT-15,> 100 µM
same,GI50,HL-60,> 100 µM (inactive)
same,GI50,HOP-62,> 100 µM (inactive)
same,GI50,HT-29,> 100 µM (inactive)
same,GI50,Hs-578T,> 100 µM (inactive)
same,GI50,IGROV-1,> 100 µM (inactive)
same,GI50,K562,> 100 µM (inactive)
same,GI50,KM12,> 100 µM (inactive)
same,GI50,LOX IMVI,> 100 µM (inactive)
same,GI50,M14,> 100 µM (inactive)
same,GI50,MCF7,67.1 µM (inactive)
same,GI50,MDA-MB-231,61 µM (inactive)
same,GI50,MDA-MB-435,> 100 µM (inactive)
same,GI50,MDA-N,> 100 µM (inactive)
same,GI50,MOLT-4,> 100 µM (inactive)
same,GI50,Malme-3M,> 100 µM (inactive)
same,GI50,NCI-H226,> 100 µM (inactive)
same,GI50,NCI-H23,> 100 µM (inactive)
same,GI50,NCI-H460,> 100 µM (inactive)
same,GI50,NCI-H522,> 100 µM (inactive)
same,GI50,NCI/ADR-RES,> 100 µM (inactive)
same,GI50,OVCAR-3,> 100 µM (inactive)
same,GI50,OVCAR-4,> 100 µM (inactive)
same,GI50,OVCAR-5,> 100 µM (inactive)
same,GI50,OVCAR-8,> 100 µM (inactive)
same,GI50,PC-3,> 100 µM (inactive)
same,GI50,RPMI-8226,> 100 µM (inactive)
same,GI50,RXF 393,> 100 µM (inactive)
same,GI50,SF-268,> 100 µM (inactive)
same,GI50,SF-295,> 100 µM (inactive)
same,GI50,SK-MEL-28,> 100 µM (inactive)
same,GI50,SK-MEL-2,> 100 µM (inactive)
same,GI50,SK-MEL-5,> 100 µM (inactive)
same,GI50,SK-OV-3,> 100 µM (inactive)
same,GI50,SN12C,> 100 µM (inactive)
same,GI50,SNB-19,> 100 µM (inactive)
same,GI50,SNB-75,> 100 µM (inactive)
same,GI50,SR,> 100 µM (inactive)
same,GI50,SW-620,> 100 µM (inactive)
same,GI50,T47D,34.1 µM (inactive)
same,GI50,TK-10,> 100 µM (inactive)
same,GI50,U-251,> 100 µM (inactive)
same,GI50,UACC-257,> 100 µM (inactive)
same,GI50,UACC-62,> 100 µM (inactive)
same,GI50,UO-31,98.4 µM (inactive)
